From patent US20060189675A1, “Crystalline form of a drug” (priority 2004, published 2006)
Values after ≈ are worked out from the molar mass of the structure shown.

Assay: Solubility of Atrasentan Hydrochloride Crystalline Forms in 1,4-dioxane
Type: physicochemical
Details: 25° C., n=3
Procedure: The solubility (in mg/mL) of Atrasentan Hydrochloride Crystalline Forms 1, 2 and 3 in 1,4-dioxane at 25° C.

solubility in 1,4-dioxane [mg/mL]	Structure (SMILES)
16.66 ± 0.22 (≈ 32.6 mM)	CCCCN(CCCC)C(=O)CN1C[C@H](c2ccc3c(c2)OCO3)[C@@H](C(=O)O)[C@@H]1c1ccc(OC)cc1 [Form 2, (2R,3R,4S)-(+)-2-(4-methoxyphenyl)-4-(1,3-benzodioxol-5-yl)-1-(N,N-di(n-butyl)aminocarbonylmethyl)pyrrolidine-3-carboxylic acid]
35.60 ± 1.82 (≈ 69.7 mM)	CCCCN(CCCC)C(=O)CN1C[C@H](c2ccc3c(c2)OCO3)[C@@H](C(=O)O)[C@@H]1c1ccc(OC)cc1 [Form 1, (2R,3R,4S)-(+)-2-(4-methoxyphenyl)-4-(1,3-benzodioxol-5-yl)-1-(N,N-di(n-butyl)aminocarbonylmethyl)pyrrolidine-3-carboxylic acid]
16.53 ± 0.22 (≈ 32.4 mM)	CCCCN(CCCC)C(=O)CN1C[C@H](c2ccc3c(c2)OCO3)[C@@H](C(=O)O)[C@@H]1c1ccc(OC)cc1 [Form 3, (2R,3R,4S)-(+)-2-(4-methoxyphenyl)-4-(1,3-benzodioxol-5-yl)-1-(N,N-di(n-butyl)aminocarbonylmethyl)pyrrolidine-3-carboxylic acid]
